The target in assay [1] is Protein kinase C theta type (Homo sapiens, UniProt Q04759).
For assay [2], the target named is T1, Serine/threonine-protein kinase Nek9 (Homo sapiens, UniProt Q8TD19).
T1 sequence (Q8TD19 whole entry): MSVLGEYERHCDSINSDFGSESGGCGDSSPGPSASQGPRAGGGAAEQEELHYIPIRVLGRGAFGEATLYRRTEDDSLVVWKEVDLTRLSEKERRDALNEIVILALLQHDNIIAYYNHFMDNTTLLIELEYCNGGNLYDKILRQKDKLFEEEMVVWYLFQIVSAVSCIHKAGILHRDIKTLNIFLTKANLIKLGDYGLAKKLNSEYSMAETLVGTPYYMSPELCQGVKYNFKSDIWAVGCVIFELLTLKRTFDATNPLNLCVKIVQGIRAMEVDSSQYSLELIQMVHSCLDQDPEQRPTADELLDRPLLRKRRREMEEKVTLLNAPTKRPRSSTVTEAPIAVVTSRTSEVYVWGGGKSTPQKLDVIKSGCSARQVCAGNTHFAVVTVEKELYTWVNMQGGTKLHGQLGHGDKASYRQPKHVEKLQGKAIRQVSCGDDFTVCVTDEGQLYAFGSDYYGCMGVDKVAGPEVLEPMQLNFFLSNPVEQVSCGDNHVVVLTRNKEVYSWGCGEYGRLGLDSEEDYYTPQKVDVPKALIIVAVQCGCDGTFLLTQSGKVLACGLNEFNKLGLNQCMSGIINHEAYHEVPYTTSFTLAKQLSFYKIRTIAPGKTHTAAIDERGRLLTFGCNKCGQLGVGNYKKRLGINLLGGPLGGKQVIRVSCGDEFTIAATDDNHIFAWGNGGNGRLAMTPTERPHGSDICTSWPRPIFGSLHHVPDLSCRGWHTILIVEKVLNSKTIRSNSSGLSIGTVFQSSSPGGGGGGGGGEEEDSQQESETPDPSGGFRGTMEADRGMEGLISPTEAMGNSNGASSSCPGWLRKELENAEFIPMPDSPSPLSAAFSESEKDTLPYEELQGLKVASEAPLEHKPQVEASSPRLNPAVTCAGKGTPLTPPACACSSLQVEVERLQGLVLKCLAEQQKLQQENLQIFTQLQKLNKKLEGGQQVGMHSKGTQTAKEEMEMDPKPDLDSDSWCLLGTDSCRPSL

For assay [3], the target named is T2, Mitogen-activated protein kinase kinase kinase 5 (Homo sapiens, UniProt Q99683).
T2 sequence (Q99683 whole entry): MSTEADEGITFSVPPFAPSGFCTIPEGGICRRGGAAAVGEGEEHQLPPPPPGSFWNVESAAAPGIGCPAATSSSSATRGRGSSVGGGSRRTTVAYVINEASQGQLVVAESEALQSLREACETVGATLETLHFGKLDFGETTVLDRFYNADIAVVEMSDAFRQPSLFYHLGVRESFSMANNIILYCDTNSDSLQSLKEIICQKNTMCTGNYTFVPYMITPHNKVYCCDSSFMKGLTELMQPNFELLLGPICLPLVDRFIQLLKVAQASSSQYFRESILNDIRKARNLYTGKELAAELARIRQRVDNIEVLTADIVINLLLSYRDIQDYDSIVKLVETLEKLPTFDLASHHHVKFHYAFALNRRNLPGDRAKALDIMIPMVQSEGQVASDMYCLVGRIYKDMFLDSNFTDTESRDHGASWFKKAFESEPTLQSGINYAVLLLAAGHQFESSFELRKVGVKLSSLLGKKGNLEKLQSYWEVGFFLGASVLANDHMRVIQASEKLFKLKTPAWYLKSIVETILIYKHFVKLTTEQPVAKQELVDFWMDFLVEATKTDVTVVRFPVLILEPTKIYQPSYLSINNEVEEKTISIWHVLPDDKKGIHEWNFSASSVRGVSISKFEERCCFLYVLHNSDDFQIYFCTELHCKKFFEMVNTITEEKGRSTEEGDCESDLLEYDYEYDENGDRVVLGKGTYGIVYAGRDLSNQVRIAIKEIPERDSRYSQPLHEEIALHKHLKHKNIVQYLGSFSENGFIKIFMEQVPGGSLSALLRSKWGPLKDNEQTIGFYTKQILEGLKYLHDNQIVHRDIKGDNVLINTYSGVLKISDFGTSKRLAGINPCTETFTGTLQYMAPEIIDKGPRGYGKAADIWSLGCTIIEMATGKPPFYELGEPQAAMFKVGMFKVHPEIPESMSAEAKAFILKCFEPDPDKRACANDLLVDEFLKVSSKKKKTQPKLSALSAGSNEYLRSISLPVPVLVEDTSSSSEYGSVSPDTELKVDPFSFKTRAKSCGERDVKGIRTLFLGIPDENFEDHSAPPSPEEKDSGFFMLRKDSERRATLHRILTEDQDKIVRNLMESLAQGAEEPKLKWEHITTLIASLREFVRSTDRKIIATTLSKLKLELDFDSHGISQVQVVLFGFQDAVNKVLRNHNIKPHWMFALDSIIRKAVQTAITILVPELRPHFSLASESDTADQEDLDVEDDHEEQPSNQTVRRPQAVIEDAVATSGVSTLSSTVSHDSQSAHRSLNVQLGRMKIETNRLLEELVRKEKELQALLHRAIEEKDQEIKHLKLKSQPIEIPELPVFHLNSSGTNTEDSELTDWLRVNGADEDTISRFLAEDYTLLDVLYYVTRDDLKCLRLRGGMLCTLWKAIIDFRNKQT

Activity calls are given as the source filed them.
Note: in the data inactive means no Kd found up to 30 µM.

Sequence of Protein kinase C theta type (Q04759 whole entry): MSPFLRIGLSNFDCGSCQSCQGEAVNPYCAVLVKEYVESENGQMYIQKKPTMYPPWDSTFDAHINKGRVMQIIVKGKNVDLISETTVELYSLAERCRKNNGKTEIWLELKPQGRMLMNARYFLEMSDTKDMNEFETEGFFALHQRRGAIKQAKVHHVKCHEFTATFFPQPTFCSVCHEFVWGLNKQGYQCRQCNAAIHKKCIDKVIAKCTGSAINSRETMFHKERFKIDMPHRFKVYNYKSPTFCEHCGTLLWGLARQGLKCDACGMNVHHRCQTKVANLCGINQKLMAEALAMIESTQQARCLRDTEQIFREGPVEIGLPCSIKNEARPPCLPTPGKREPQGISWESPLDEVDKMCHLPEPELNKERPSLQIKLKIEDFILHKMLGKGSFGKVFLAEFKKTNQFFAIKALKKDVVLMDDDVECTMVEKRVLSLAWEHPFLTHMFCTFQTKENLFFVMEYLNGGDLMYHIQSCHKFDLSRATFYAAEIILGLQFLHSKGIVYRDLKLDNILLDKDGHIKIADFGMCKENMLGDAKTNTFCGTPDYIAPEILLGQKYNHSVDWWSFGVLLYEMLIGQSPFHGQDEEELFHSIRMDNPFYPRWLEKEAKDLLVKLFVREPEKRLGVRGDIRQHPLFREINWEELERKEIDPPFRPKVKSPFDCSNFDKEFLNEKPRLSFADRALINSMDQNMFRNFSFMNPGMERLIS

As a reminder, the Kd is the equilibrium constant for the complex coming apart. Regarding `COc1cc([C@@H]2c3cc4c(cc3[C@H](O)[C@H]3COC(=O)[C@@H]23)OCO4)cc(OC)c1OC` [AXL-1717], the Kd in assay [1], in assay [2] and in assay [3] was > 30 µM (inactive) in each case.

Regarding `NC(=O)Nc1cc(-c2cccc(F)c2)sc1C(=O)N[C@H]1CCCNC1` [AZD-7762], the Kd in assay [1], in assay [2] and in assay [3] was > 30 µM (inactive) each time.

Turning to `Cc1cc(C(=O)NOCCO)c(Nc2ccc(I)cc2F)n(C)c1=O` [AZD-8330], the Kd in assay [1], in assay [2] and in assay [3] was > 30 µM (inactive) throughout.

For the molecule `Cn1cnc2c(F)c(Nc3ccc(Br)cc3F)c(C(=O)NOCCO)cc21` [BINIMETINIB], the Kd in assay [1], in assay [2] and in assay [3] was > 30 µM (inactive) throughout.

As for `CCn1c(C(=O)N(C2CC2)C2CC2)cc2c3c(ncn3C)c(Nc3cc(C)n(C)n3)nc21` [BMS-911543], the Kd in assay [1], in assay [2] and in assay [3] was > 30 µM (inactive) each time.

For the molecule `COc1cc2ncnc(Oc3cccc(NC(=O)Nc4cc(C(C)(C)C(F)(F)F)on4)c3)c2cc1OC` [CEP-32496], the Kd in assay [1], in assay [2] and in assay [3] was > 30 µM (inactive) throughout.

As to `Cc1cc(Nc2ncc(Cl)c(Nc3ccccc3S(=O)(=O)C(C)C)n2)c(OC(C)C)cc1C1CCNCC1` [CERITINIB], the Kd in assay [1], in assay [2] and in assay [3] was > 30 µM (inactive) throughout.

In the case of `COc1c(OCCCN2CCOCC2)ccc2c1N=C(NC(=O)c1cnc(N)nc1)N1CCN=C21` [COPANLISIB], the Kd in assay [1], in assay [2] and in assay [3] was > 30 µM (inactive) throughout.

As for `COCC(=O)NC/C=C/c1ccc2ncnc(Nc3ccc(Oc4ccc(C)nc4)c(C)c3)c2c1` [CP-724714], the Kd in assay [1], in assay [2] and in assay [3] was > 30 µM (inactive) in each case.

As to `C#Cc1cccc(Nc2ncnc3cc(OC)c(OCCCCCCC(=O)NO)cc23)c1` [CUDC-101], the Kd in assay [1], in assay [2] and in assay [3] was > 30 µM (inactive) each time.

Take `Cc1nc2cc(-n3ncc(C(=O)c4cc5ccccc5[nH]4)c3N)ccc2[nH]1` [FGFR INHIBITOR DEBIO 1347]: the Kd in assay [1], in assay [2] and in assay [3] was > 30 µM (inactive) each time.

Consider `O=C(Nc1nc2cccc(-c3ccc(CN4CCS(=O)(=O)CC4)cc3)n2n1)C1CC1` [FILGOTINIB], for which the Kd in assay [1], in assay [2] and in assay [3] was > 30 µM (inactive) in each case.

Consider `Cc1cccc(-c2nn3c(c2-c2ccnc4ccc(C(N)=O)cc24)CCC3)n1` [GALUNISERTIB], for which the Kd in assay [1], in assay [2] and in assay [3] was > 30 µM (inactive) throughout.

Regarding `CCn1cc(-c2ccnc3[nH]c(-c4cccc(CN(C)C)c4)cc23)c(-c2ccc(NC(=O)N(C)C)cc2)n1` [GSK-1070916], the Kd in assay [1], in assay [2] and in assay [3] was > 30 µM (inactive) throughout.

As for `COc1ccc(S(=O)(=O)N(C(C)=O)c2ccccc2/C=C/c2cc[n+]([O-])cc2)cc1` [HMN-214], the Kd in assay [1], in assay [2] and in assay [3] was > 30 µM (inactive) in each case.

As for `O=C(Nc1cc(C(F)(F)F)cc(C(F)(F)F)c1)c1cc(Cl)ccc1O` [IMD-0354], the Kd in assay [1], in assay [2] and in assay [3] was > 30 µM (inactive) each time.

In the case of `CNC(=O)c1cccc2cc(Oc3ccnc4cc(OCC5(N)CC5)c(OC)cc34)ccc12` [LUCITANIB], the Kd in assay [1], in assay [2] and in assay [3] was > 30 µM (inactive) in each case.

On to `CNC(=O)c1nn(C)c2c1C(C)(C)Cc1cnc(Nc3ccc(N4CCN(C)CC4)cc3)nc1-2` [MILCICLIB], for which the values for the Kd in assay [1], in assay [2] and in assay [3] were > 30 µM (inactive), 19.6 µM (active) and > 30 µM (inactive), respectively.

With `NC1(c2ccc(-c3nc4ccn5c(=O)[nH]nc5c4cc3-c3ccccc3)cc2)CCC1` [MK-2206], the Kd in assay [1], in assay [2] and in assay [3] was > 30 µM (inactive) each time.

As to `CN(C[C@@H]1COCCO1)S(=O)(=O)Nc1ccc2ccc3ncc(-c4cnn(C)c4)cc3c(=O)c2c1` [MK-2461], the Kd in assay [1], in assay [2] and in assay [3] was > 30 µM (inactive) in each case.

For `Cn1cc(-c2cnc3ccc4ccc(CS(=O)(=O)NCc5ccccn5)cc4c(=O)c3c2)cn1` [MK-8033], the Kd in assay [1], in assay [2] and in assay [3] was > 30 µM (inactive) throughout.

For `FC(F)(F)c1ccc(/C=C/c2nc(COc3ccc(CCCCn4ccnn4)cc3)co2)cc1` [MUBRITINIB], the Kd in assay [1], in assay [2] and in assay [3] was > 30 µM (inactive) in each case.

With `COc1ncc(-c2ccc3nccc(-c4ccnnc4)c3c2)cc1NS(=O)(=O)c1ccc(F)cc1F` [OMIPALISIB], the Kd in assay [1], in assay [2] and in assay [3] was > 30 µM (inactive) each time.

On to `CCOc1cc2ncc(C#N)c(Nc3ccc(F)c(Cl)c3)c2cc1NC(=O)/C=C/CN(C)C` [PELITINIB], for which the Kd in assay [1], in assay [2] and in assay [3] was > 30 µM (inactive) in each case.

On to `CCCCCCCCCCCCCCCCCCOP(=O)([O-])OC1CC[N+](C)(C)CC1` [PERIFOSINE], for which the Kd in assay [1], in assay [2] and in assay [3] was > 30 µM (inactive) throughout.

For the molecule `Cc1nc(Nc2n[nH]c3c2CN(C(=O)N[C@H](CN(C)C)c2ccccc2)C3(C)C)c2sccc2n1` [PF-03758309], the dissociation constant (Kd) was 0.085 µM (active) in assay [1], > 30 µM (inactive) in assay [2] and > 30 µM (inactive) in assay [3].

In the case of `Cc1cnc(NC(=O)Nc2cc(Br)c(C)cc2OC[C@@H]2CNCCO2)cn1` [RABUSERTIB], the Kd in assay [1], in assay [2] and in assay [3] was > 30 µM (inactive) each time.

Values taken from ChEMBL document CHEMBL3991601, “The target landscape of clinical kinase drugs” (Science, 2017).
